Article PMC9482650, “Quantitative fragmentomics allow affinity mapping of interactomes” (Nature Communications, 2022)
Ends that are not written are not given here. * marks the point of attachment. Biotin = O=C1N[C@H]2[C@H](CS[C@H]2CCCCC(=O)*)N1; ttds = NCCCOCCOCCOCCCNC(=O)CCC(=O)*

Tested on: LIN7C
Experiment: PBM-AP-MS from Jurkat extract
Type: binding, Homo sapiens
Conditions: prey LIN7C, PBM peptide bait

Row | Substance | Enrichment values compared to biotin controls
1 | HPV35E6 ({Biotin-ttds}-SKPTRRETEV) | 34.7
2 | HPV18E6 | 68.0
3 | HPV30E6 ({Biotin-ttds}-RHTTSTETAV) | 26.9
